Values quoted from earlier work as cited in US9029312B2, “Compositions for cleaning applicators for hair removal compositions” (priority 2012, dated 2015).

Key:
[1] = Bhargava & Leonard 1996

## Oc1cc(Cl)ccc1Oc1ccc(Cl)cc1Cl [Triclosan, 5-Chloro-2-(2,4-dichlorophenoxy) phenol]
other
  solubility in mineral oil: relatively high solubility in mineral oil
[1]
  carcinogenic, mutagenic or teratogenic effects: not found to have any carcinogenic, mutagenic or teratogenic effects
  toxicity to humans and other mammals: relatively non-toxic
